# Experimental data: patent US6239122A, “Method of treatment of nausea, vomiting, and other disorders using estrogens” (priority 2000, dated 2001)
# How the values were obtained:
# [1] = molecular target: T1, 5-HT3 receptor (Mus musculus, UniProt P23979); test: Whole-cell patch clamp, co-application of estrogen with 5-HT (0.5 μM); open conformation, high affinity site; type: cell-based, mouse neuroblastoma×Chinese hamster brain cell line (NCB-20)
# T1 construct: an immortal cell line that expresses 5-HT3 receptors at a high density; endogenous in cells; host or cells: NCB-20 cells (mouse neuroblastoma × Chinese hamster brain hybrid)
# T1 sequence (P23979 24-489): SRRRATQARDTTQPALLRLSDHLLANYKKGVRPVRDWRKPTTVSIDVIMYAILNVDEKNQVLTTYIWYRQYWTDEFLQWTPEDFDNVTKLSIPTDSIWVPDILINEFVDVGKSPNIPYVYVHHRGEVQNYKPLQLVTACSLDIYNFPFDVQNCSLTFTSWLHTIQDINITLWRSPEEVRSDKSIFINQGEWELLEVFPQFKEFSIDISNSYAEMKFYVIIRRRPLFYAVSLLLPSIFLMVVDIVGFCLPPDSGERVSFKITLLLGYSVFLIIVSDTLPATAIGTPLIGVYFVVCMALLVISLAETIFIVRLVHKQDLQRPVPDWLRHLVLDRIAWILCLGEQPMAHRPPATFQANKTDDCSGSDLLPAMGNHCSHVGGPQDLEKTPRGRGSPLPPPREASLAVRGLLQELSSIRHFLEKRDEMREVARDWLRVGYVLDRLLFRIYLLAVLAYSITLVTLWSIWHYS
# Experimental: I recorded membrane currents carried by 5-HT3 receptors under voltage-clamp from single cells using the whole-cell configuration of the patch clamp technique (Hamill, O. P., Marty, A., Neher, E., Sakmann, B. & Sakmann, F. J., 1981, Pfluegers Arch. 391:85-100). Recordings were performed at a holding potential of -60 mV. Ligands were applied to the cells using a gravity-feed rapid perfusion system.
# When the agonist is bound to the receptor and the receptor is conducting current, the receptor is in an open conformation. […] Concentration-effect data from 21 cells were fitted with the Hill (logistic) equation.
# [2] = molecular target: T1, 5-HT3 receptor; test: Whole-cell patch clamp, estrogen applied before 5-HT (10 μM); closed conformation, low affinity site; type: cell-based, mouse neuroblastoma×Chinese hamster brain cell line (NCB-20)
# Experimental: I used NCB-20 cells (mouse neuroblastoma×Chinese hamster brain cell line), an immortal cell line that expresses 5-HT3 receptors at a high density. Cells were grown in Dulbecco's modified Eagles medium containing 10% fetal bovine serum, 100 U/ml penicillin, 100 μg/ml streptomycin and 2 mM glutamine. Cells were incubated in 35 mm plates at 37 degrees C in a humidified 7% carbon dioxide atmosphere. […] I recorded membrane currents carried by 5-HT3 receptors under voltage-clamp from single cells using the whole-cell configuration of the patch clamp technique (Hamill, O. P., Marty, A., Neher, E., Sakmann, B. & Sakmann, F. J., 1981, Pfluegers Arch. 391:85-100). Recordings were performed at a holding potential of -60 mV. Ligands were applied to the cells using a gravity-feed rapid perfusion system.
# This is also called the closed conformation of the receptor.
SMILES,IC50 [1] [µM],IC50 [2] [µM]
C[C@]12CC[C@@H]3c4ccc(O)cc4CC[C@H]3[C@@H]1C[C@@H](O)[C@@H]2O [estriol],22 ± 8,–
"C[C@]12CC[C@@H]3c4ccc(O)cc4CC[C@H]3[C@@H]1CCC2=O [estrone, 3-hydroxyestra-1,3,5(10)-trien-17-one]",0.0015,0.3 ± 0.02
